From PubChem BioAssay (NCI)
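Cells were grown in 96-well plates and exposed to each compound for 48 hours at five concentrations; endpoints were interpolated linearly between bracketing concentrations, or set to the highest concentration if not reached. Definition used: TGI = concentration required for complete inhibition of growth.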

Key:
Assay in all cases: growth of human tumour cells (NCI), 48 h
KM12 colon = test system: KM12 colon
M14 melanoma = test system: M14 melanoma
MALME-3M melanoma = test system: MALME-3M melanoma
MOLT-4 leukemia = test system: MOLT-4 leukemia
NCI/ADR-RES ovarian = test system: NCI/ADR-RES ovarian
OVCAR-3 ovarian = test system: OVCAR-3 ovarian
OVCAR-4 ovarian = test system: OVCAR-4 ovarian
PC-3 prostate = test system: PC-3 prostate
TK-10 renal = test system: TK-10 renal
UO-31 renal = test system: UO-31 renal

Compound | TGI (KM12 colon) | TGI (M14 melanoma) | TGI (MALME-3M melanoma) | TGI (MOLT-4 leukemia) | TGI (NCI/ADR-RES ovarian) | TGI (OVCAR-3 ovarian) | TGI (OVCAR-4 ovarian) | TGI (PC-3 prostate) | TGI (TK-10 renal) | TGI (UO-31 renal)
Cc1n[nH]c(=O)n1-n1cccc1 | > 100 µM | > 100 µM | > 100 µM | > 100 µM | > 100 µM | > 100 µM | > 100 µM | > 100 µM | > 100 µM | > 100 µM
CC1(C)C(=O)/C(=C/c2ccccc2)C(C)(C)C1(C)C | > 100 µM | > 100 µM | > 100 µM | > 100 µM | > 100 µM | > 83.2 µM | > 100 µM | > 100 µM | > 100 µM | > 100 µM
COc1cc2c(cc1O)C(Cc1ccc(OCc3ccccc3)c(OCc3ccccc3)c1)N(C(=O)NCCc1ccccc1)CC2 (stereo not given) | > 100 µM | > 100 µM | > 100 µM | > 100 µM | > 100 µM | > 100 µM | > 100 µM | > 100 µM | > 100 µM | > 100 µM
COC(=O)CCC(C)[C@H]1CCC2C3CC[C@@H]4CC5(CC[C@]4(C)C3C[C@H](OC(C)=O)[C@@]21C)OOC1(CCCCC1)OO5 (stereo not given in full) | > 100 µM | > 100 µM | 60.3 µM | > 100 µM | > 100 µM | > 100 µM | > 100 µM | > 100 µM | > 100 µM | 9.04 µM
CC(C)(NO)/C(=N\O)c1ccccc1 | > 10 µM | > 10 µM | > 10 µM | > 10 µM | > 10 µM | > 10 µM | > 10 µM | > 10 µM | > 10 µM | > 10 µM
CC1(C)CCC[C@@]2(C)C1CC[C@@]1(CO)O[C@H](C3=CC(=O)OC3O)C[C@H]12 (stereo not given in full) | 36.3 µM | 31.8 µM | 24.2 µM | 11.5 µM | 36.7 µM | 29.4 µM | 35.2 µM | 29.5 µM | 34.4 µM | 29.2 µM
COc1ccc(O[C@H](CO)C[C@@H]2COC(C)(C)O2)cc1 | > 100 µM | > 100 µM | > 100 µM | > 100 µM | > 100 µM | > 100 µM | > 100 µM | > 100 µM | > 100 µM | > 100 µM
COc1cc2c(cc1OC)C1=C(C=O)c3ccc(OC)c(OC)c3C(O)N1CC2 (stereo not given) | > 100 µM | 78.1 µM | 53.9 µM | > 100 µM | 79.6 µM | > 100 µM | > 100 µM | 54 µM | 72.8 µM | > 100 µM
C[n+]1c2ccccc2n2c3ccccc3c(NCCCn3ccnc3)c(C#N)c21 | 17.7 µM | 5.23 µM | 4.5 µM | > 35.7 µM | > 93.5 µM | > 25.2 µM | 7.42 µM | 9.62 µM | 59.5 µM | 42.6 µM
